Assay results taken from US7268152B2, “Glucocorticoid mimetics, methods of making them, pharmaceutical compositions, and uses thereof” (Boehringer Ingelheim Pharmaceuticals, Inc., priority 2002, dated 2007).

Target: T1, human glucocorticoid receptor (GR) complex (Homo sapiens, UniProt P04150)
T1 construct: made in house; host or cells: insect expression system (baculovirus lysate)
T1 sequence (P04150 1-777): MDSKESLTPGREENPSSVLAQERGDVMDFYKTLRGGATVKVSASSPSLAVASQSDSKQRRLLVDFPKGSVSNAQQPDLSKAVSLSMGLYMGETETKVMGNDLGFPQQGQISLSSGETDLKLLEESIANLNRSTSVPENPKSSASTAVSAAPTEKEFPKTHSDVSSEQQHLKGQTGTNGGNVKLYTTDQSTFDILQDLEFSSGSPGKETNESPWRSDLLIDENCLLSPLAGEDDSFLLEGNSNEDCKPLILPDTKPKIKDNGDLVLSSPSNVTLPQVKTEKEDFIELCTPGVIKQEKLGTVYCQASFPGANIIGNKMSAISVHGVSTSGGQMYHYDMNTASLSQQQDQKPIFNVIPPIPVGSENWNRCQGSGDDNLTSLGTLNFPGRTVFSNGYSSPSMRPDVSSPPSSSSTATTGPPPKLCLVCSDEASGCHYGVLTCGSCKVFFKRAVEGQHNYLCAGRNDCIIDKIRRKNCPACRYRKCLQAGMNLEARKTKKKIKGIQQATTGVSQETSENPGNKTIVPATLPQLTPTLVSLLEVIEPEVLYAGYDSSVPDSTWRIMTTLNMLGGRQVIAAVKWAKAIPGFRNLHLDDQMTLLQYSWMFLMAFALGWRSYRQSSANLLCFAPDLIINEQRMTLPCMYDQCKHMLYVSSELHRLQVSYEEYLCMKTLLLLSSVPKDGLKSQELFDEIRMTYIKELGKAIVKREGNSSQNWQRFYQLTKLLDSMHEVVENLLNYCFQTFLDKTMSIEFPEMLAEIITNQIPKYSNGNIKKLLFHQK
Experiment: Glucocorticoid receptor competitive binding assay (fluorescence polarization)
Conditions: competition with TAMRA-labeled dexamethasone
Method: Compounds of the invention were evaluated for binding to the steroid receptor by a fluorescence polarization competitive binding assay. Detailed descriptions for preparation of recombinant glucocorticoid receptor (GR) complex used in the assay is described in U.S. provisional application No. 60/291,877, filed May 18, 2001, and incorporated herein by reference in its entirety. Preparation of the tetramethyl rhodamine (TAMRA)-labeled dexamethasone probe was accomplished using a standard literature procedure (M. Pons et al., J. Steroid Biochem., 1985, 22, pp. 267-273).
A. Glucocorticoid Receptor Competitive Binding Assay
Step 1. Characterization of the Fluorescent Probe
The wavelengths for maximum excitation and emission of the fluorescent probe should first be measured. An example of such a probe is rhodamine (TAMRA)-labeled dexamethasone.
The affinity of the probe for the steroid receptor was then determined in a titration experiment. The fluorescence polarization value of the probe in assay buffer was measured on an SLM-8100 fluorometer using the excitation and emission maximum values described above. Aliquots of expression vector lysate were added and fluorescence polarization was measured after each addition until no further change in polarization value was observed. Non-linear least squares regression analysis was used to calculate the dissociation constant of the probe from the polarization values obtained for lysate binding to the probe.
Step 2. Screeningfor Inhibitors of Probe Binding
This assay uses fluorescence polarization (FP) to quantitate the ability of test compounds to compete with tetramethyl rhodamine (TAMRA)-labeled dexamethasone for binding to a human glucocorticoid receptor (GR) complex prepared from an insect expression system. The assay buffer was: 10 mM TES, 50 mM KCl, 20 mM Na2MoO4.2H2O, 1.5 mM EDTA, 0.04% w/v CHAPS, 10% v/v glycerol, 1 mM dithiothreitol, pH 7.4. Test compounds were dissolved to 1 mM in neat DMSO and then further diluted to 10×assay concentration in assay buffer supplemented with 10% v/v DMSO. Test compounds were serially diluted at 10×assay concentrations in 10% DMSO-containing buffer in 96-well polypropylene plates. Binding reaction mixtures were prepared in 96-well black Dynex microtiter plates by sequential addition of the following assay components to each well: […] of 10×test compound solution, 85 μL of GR-containing baculovirus lysate diluted 1:170 in assay buffer, and 50 μL of 15 nM TAMRA-labeled dexamethasone. Positive controls were reaction mixtures containing no test compound; negative controls (blanks) were reaction mixtures containing 0.7 μM to 2 μM dexamethasone. The binding reactions were incubated for 1 hour at room temperature and then read for fluorescence polarization in the LJL Analyst set to 550 nm excitation and 580 nm emission, with the Rhodamine 561 dichroic mirror installed. IC50 values were determined by iterative non-linear curve fitting of the FP signal data to a 4-parameter logistic equation.

IC50 [nM] | Compound
≤ 100 | CCOc1ccc(F)cc1C(C)(C)CC(O)(Cc1cc(C(F)(F)F)cc(Cl)c1F)C(F)(F)F (stereo not drawn) [2-(3-Chloro-2-fluoro-5-trifluoromethylbenzyl)-4-(2-ethoxy-5-fluorophenyl)-1,1,1-trifluoro-4-methylpentan-2-ol]
≤ 100 | CC(C)(CC(O)(Cc1cc(C(F)(F)F)cc(Cl)c1F)C(F)(F)F)c1ccc(Cl)c(Cl)c1 (stereo not drawn) [2-(3-Chloro-2-fluoro-5-trifluoromethylbenzyl)-4-(3,4-dichlorophenyl)-1,1,1-trifluoro-4-methylpentan-2-ol]
≤ 100 | CC(C)(CC(O)(Cc1cc(C(F)(F)F)cc(Cl)c1F)C(F)(F)F)c1cccc(Cl)c1 (stereo not drawn) [2-(3-Chloro-2-fluoro-5-trifluoromethylbenzyl)-4-(3-chlorophenyl)-1,1,1-trifluoro-4-methylpentan-2-ol]
≤ 100 | COc1ccc(F)cc1C(C)(C)CC(O)(Cc1cccc(Cl)c1F)C(F)(F)F (stereo not drawn) [2-(3-Chloro-2-fluorobenzyl)-1,1,1-trifluoro-4-(5-fluoro-2-methoxyphenyl)-4-methylpentan-2ol]
≤ 100 | COc1ccc(F)cc1C(C)(C)CC(O)(Cc1ccc(F)c(Cl)c1)C(F)(F)F (stereo not drawn) [2-(3-Chloro-4-fluorobenzyl)-1,1,1-trifluoro-4-(5-fluoro-2-methoxyphenyl)-4-methylpentan-2-ol]
≤ 100 | COc1ccc(F)cc1C(C)(C)CC(O)(Cc1ccc(Cl)c(C(F)(F)F)c1)C(F)(F)F (stereo not drawn) [2-(4-Chloro-3-trifluoromethylbenzyl)-1,1,1-trifluoro-4-(5-fluoro-2-methoxyphenyl)-4-methylpentan-2-ol]
≤ 100 | COc1ccc(F)cc1C(C)(C)CC(O)(Cc1cc(Cl)ccc1F)C(F)(F)F (stereo not drawn) [2-(5-Chloro-2-fluorobenzyl)-1,1,1-trifluoro-4-(5-fluoro-2-methoxyphenyl)-4-methylpentan-2-ol]
≤ 100 | CC(C)(CC(O)(Cc1ccccc1)C(F)(F)F)c1ccccc1 (stereo not drawn) [2-Benzyl-1,1,1-trifluoro-4-methyl-4-phenylpentan-2-ol]
≤ 100 | COc1ccc(F)cc1C(C)(C)CC(O)(Cc1ccc(-c2ccccc2)cc1)C(F)(F)F (stereo not drawn) [2-Biphenyl-4-ylmethyl-1,1,1-trifluoro-4-(5-fluoro-2-methoxyphenyl)-4-methylpentan-2-ol]
≤ 100 | CC(C)(CC(O)(Cc1ccc(Cl)c(Cl)c1)C(F)(F)F)c1cc(F)ccc1O (stereo not drawn) [2-[3-(3,4-Dichlorobenzyl)-4,4,4-trifluoro-3-hydroxy-1,1-dimethylbutyl]-4-fluorophenol]
≤ 100 | CC(C)(CC(O)(Cc1ccc(F)c(F)c1)C(F)(F)F)c1cc(F)ccc1O (stereo not drawn) [2-[3-(3,4-Difluorobenzyl)-4,4,4-trifluoro-3-hydroxy-1,1-dimethylbutyl]4-fluorophenol]
≤ 100 | CC(C)(CC(O)(Cc1cc(C(F)(F)F)cc(C(F)(F)F)c1)C(F)(F)F)c1cc(F)ccc1O (stereo not drawn) [2-[3-(3,5-Bis-trifluoromethylbenzyl)-4,4,4-trifluoro-3-hydroxy-1,1-dimethylbutyl]-4-fluorophenol]
≤ 100 | CC(C)(CC(O)(Cc1cc(Cl)cc(Cl)c1)C(F)(F)F)c1cc(F)ccc1O (stereo not drawn) [2-[3-(3,5-Dichlorobenzyl)-4,4,4-trifluoro-3-hydroxy-1,1-dimethylbutyl]4-fluorophenol]
≤ 100 | CC(C)(CC(O)(Cc1cc(F)cc(F)c1)C(F)(F)F)c1cc(F)ccc1O (stereo not drawn) [2-[3-(3,5-Difluorobenzyl)-4,4,4-trifluoro-3-hydroxy-1,1-dimethylbutyl]-4-fluorophenol]
≤ 100 | Cc1cc(C)cc(CC(O)(CC(C)(C)c2cc(F)ccc2O)C(F)(F)F)c1 (stereo not drawn) [2-[3-(3,5-Dimethylbenzyl)-4,4,4-trifluoro-3-hydroxy-1,1-dimethylbutyl]4-fluorophenol]
≤ 100 | CC(C)(CC(O)(Cc1cc(C(F)(F)F)cc(Cl)c1F)C(F)(F)F)c1cc(F)ccc1O (stereo not drawn) [2-[3-(3-Chloro-2-fluoro-5-trifluoromethylbenzyl)-4,4,4-trifluoro-3-hydroxy-1,1-dimethylbutyl]-4-fluorophenol]
≤ 100 | CC(C)(CC(O)(Cc1ccc(Cl)cc1)C(F)(F)F)c1cc(F)ccc1O (stereo not drawn) [2-[3-(4-Chlorobenzyl)-4,4,4-trifluoro-3-hydroxy-1,1-dimethylbutyl]-4-fluorophenol]
≤ 100 | CC(C)(CC(O)(Cc1ccc(C#N)cc1Cl)C(F)(F)F)c1ccc(O)cc1 (stereo not drawn) [3-Chloro-4-[2-hydroxy-4-(4-hydroxyphenyl)-4-methyl-2-trifluoromethylpentyl]benzonitrile]
≤ 100 | COc1ccc(C(C)(C)CC(O)(Cc2ccc(C#N)cc2Cl)C(F)(F)F)cc1 (stereo not drawn) [3-Chloro-4-[2-hydroxy-4-(4-methoxyphenyl)-4-methyl-2-trifluoromethylpentyl]benzonitrile]
≤ 100 | COc1ccc(F)cc1C(C)(C)CC(O)(Cc1cc(Cl)cc(C#N)c1)C(F)(F)F (stereo not drawn) [3-Chloro-5-[4-(5-fluoro-2-methoxyphenyl)-2-hydroxy-4-methyl-2-trifluoromethylpentyl]benzonitrile]
≤ 100 | COc1ccc(F)cc1C(C)(C)CC(O)(Cc1ccc(C#N)cc1F)C(F)(F)F (stereo not drawn) [3-Fluoro-4-[4-(5-fluoro-2-methoxyphenyl)-2-hydroxy-4-methyl-2-trifluoromethylpentyl]benzonitrile]
≤ 100 | COc1ccc(F)cc1C(C)(C)CC(O)(Cc1cccc(C#N)c1)C(F)(F)F (stereo not drawn) [3-[4-(5-Fluoro-2-methoxyphenyl)-2-hydroxy-4-methyl-2-trifluoromethylpentyl]benzonitrile]
≤ 100 | CC(C)(CC(O)(Cc1ccc(Cl)c(Cl)c1)C(F)(F)F)c1cccc(Cl)c1 (stereo not drawn) [4-(3-Chlorophenyl)-2-(3,4-dichlorobenzyl)-1,1,1-trifluoro-4-methylpentan-2-ol]
≤ 100 | CC(C)(CC(O)(Cc1cc(F)cc(C(F)(F)F)c1)C(F)(F)F)c1cc(F)ccc1O (stereo not drawn) [4-Fluoro-2-[4,4,4-trifluoro-3-(3-fluoro-5-trifluoromethylbenzyl)-3-hydroxy-1,1-dimethylbutyl]phenol]
≤ 100 | Cc1cc(CC(O)(CC(C)(C)c2cc(F)ccc2O)C(F)(F)F)ccc1F (stereo not drawn) [4-Fluoro-2-[4,4,4-trifluoro-3-(4-fluoro-3-methylbenzyl)-3-hydroxy-1,1-dimethylbutyl]phenol]
≤ 100 | Cc1ccccc1CC(O)(CC(C)(C)c1cc(F)ccc1O)C(F)(F)F (stereo not drawn) [4-Fluoro-2-[4,4,4-trifluoro-3-hydroxy-1,1-dimethyl-3-(2-methylbenzyl)butyl]phenol]
≤ 100 | CC(C)(CC(O)(Cc1cc(F)c(F)c(F)c1)C(F)(F)F)c1cc(F)ccc1O (stereo not drawn) [4-Fluoro-2-[4,4,4-trifluoro-3-hydroxy-1,1-dimethyl-3-(3,4,5-trifluorobenzyl)butyl]phenol]
≤ 100 | Cc1cccc(CC(O)(CC(C)(C)c2cc(F)ccc2O)C(F)(F)F)c1 (stereo not drawn) [4-Fluoro-2-[4,4,4-trifluoro-3-hydroxy-1,1-dimethyl-3-(3-methylbenzyl)butyl]phenol]
≤ 100 | CC(C)(CC(O)(Cc1ccc(O)cc1)C(F)(F)F)c1cc(F)ccc1O (stereo not drawn) [4-Fluoro-2-[4,4,4-trifluoro-3-hydroxy-3-(4-hydroxybenzyl)-1,1-dimethylbutyl]phenol]
≤ 100 | CC(C)(CC(O)(Cc1ccc(C#N)cc1)C(F)(F)F)c1cc(F)ccc1O (stereo not drawn) [4-[4-(5-Fluoro-2-hydroxyphenyl)-2-hydroxy-4-methyl-2-trifluoromethylpentyl]benzonitrile]
